We go through 34 molecules from patent publication US20120264735A1 (priority 2009, published 2012).

The target in the test is T1, c-Met kinase (recombinant c-Met) (Homo sapiens, UniProt P08581).
T1 construct: 0.27 nM recombinant c-Met
T1 sequence (P08581 25-1390): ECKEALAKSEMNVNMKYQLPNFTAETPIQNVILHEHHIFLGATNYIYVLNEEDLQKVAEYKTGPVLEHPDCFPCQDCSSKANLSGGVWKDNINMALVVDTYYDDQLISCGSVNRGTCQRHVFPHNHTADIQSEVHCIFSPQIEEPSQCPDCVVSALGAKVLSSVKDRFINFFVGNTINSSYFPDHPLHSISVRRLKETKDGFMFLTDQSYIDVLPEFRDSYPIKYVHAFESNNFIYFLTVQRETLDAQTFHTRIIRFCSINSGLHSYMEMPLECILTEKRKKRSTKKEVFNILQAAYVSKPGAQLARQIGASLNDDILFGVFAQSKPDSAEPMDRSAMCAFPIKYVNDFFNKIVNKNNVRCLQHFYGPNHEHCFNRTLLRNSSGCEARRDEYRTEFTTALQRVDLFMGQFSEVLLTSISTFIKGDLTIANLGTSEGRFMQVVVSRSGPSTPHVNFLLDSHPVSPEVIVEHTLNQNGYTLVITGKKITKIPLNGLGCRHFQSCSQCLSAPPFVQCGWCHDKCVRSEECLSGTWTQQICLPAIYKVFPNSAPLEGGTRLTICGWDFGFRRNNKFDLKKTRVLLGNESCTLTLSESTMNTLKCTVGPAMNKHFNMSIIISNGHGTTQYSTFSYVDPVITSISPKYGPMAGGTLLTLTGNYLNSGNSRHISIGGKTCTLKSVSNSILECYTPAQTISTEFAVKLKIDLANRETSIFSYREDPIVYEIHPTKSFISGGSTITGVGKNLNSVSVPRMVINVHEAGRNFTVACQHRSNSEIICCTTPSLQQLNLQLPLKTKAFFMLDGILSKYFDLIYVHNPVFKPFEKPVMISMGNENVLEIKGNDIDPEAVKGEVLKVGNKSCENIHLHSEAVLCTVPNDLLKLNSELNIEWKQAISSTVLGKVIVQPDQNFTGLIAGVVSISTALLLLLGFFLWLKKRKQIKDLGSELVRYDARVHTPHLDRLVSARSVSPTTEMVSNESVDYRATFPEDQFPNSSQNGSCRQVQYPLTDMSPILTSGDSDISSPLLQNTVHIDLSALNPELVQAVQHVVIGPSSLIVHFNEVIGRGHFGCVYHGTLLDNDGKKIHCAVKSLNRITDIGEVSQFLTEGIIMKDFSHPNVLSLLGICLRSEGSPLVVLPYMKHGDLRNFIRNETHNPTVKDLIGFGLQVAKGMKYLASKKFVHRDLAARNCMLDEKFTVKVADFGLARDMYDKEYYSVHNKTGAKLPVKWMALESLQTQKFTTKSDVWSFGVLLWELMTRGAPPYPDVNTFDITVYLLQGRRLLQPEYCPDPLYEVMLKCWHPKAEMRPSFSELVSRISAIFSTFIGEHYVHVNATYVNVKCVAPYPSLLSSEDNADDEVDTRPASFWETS
The test is described as follows: In vitro kinase assay I (homogeneous time-resolved fluorescence tyrosine kinase assay). It is filed as biochemical. The procedure, abridged: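 Biotinylated peptide (0.5 μM) phosphorylated by 0.2 nM recombinant c-Met with 50 μM MgATP, 60 min at room temperature, pH 7.4, 5% DMSO. EDTA stop; HTRF read with Eu-anti-phosphotyrosine antibody and streptavidin-APC. IC50 from 4-parameter logistic fit.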
As usually defined, the IC50 is the midpoint of a concentration-inhibition curve. `CCCC(c1cccc(-c2ncc(OCC)cn2)c1)c1nn(-c2cnn(C)c2)ccc1=O` (single isomer, unassigned) [Example 207, 3-{(1S or R)-1-[3-(5-ethoxypyrimidin-2-yl)phenyl]butyl}-1-(1-methyl-1H-pyrazol-4-yl)pyridazin-4(1H)-one]: the IC50 is 100 to 1000 nM.
As for `CC(c1cccc(-c2ncc(OC3COC3)cn2)c1)c1nn(-c2cnn(C)c2)ccc1=O` (single isomer, unassigned) [Example 215, 1-(1-methyl-1H-pyrazol-4-yl)-3-((1S or R)-1-{3-[5-(oxetan-3-yloxy)pyrimidin-2-yl]phenyl}ethyl)pyridazin-4(1H)-one], the IC50 is 100 to 1000 nM.
Next, `COCCOc1cnc(-c2cccc(C(C)c3nn(-c4cnn(C)c4)ccc3=O)c2)nc1` (single isomer, unassigned) [Example 223, 3-((1R or S)-1-{3-[5-(2-methoxyethoxy)pyrimidin-2-yl]phenyl}ethyl)-1-(1-methyl-1H-pyrazol-4-yl)pyridazin-4(1H)-one]: less than 100 nM; `COCCOc1cnc(-c2cccc(Cc3nn(-c4cnn(C)c4)cc(C)c3=O)c2)nc1` [Example 750, 3-{3-[5-(2-Methoxyethoxy)pyrimidin-2-yl]benzyl}-5-methyl-1-(1-methyl-1H-pyrazol-4-yl)pyridazin-4(1H)-one]: less than 100 nM.
Next, `CCOCCNc1cnc(-c2cccc(Cc3nn(-c4cnn(C)c4)ccc3=O)c2)nc1` [Example 454, 3-(3-{5-[(2-ethoxyethyl)amino]pyrimidin-2-yl}benzyl)-1-(1-methyl-1H-pyrazol-4-yl)pyridazin-4(1H)-one]: less than 100 nM; `Cn1cc(-n2ccc(=O)c(Cc3cccc(-c4nnn(C)n4)c3)n2)cn1` [Example 58, 1-(1-methyl-1H-pyrazol-4-yl)-3-[3-(2-methyl-2H-tetrazol-5-yl)benzyl]pyridazin-4(1H)-one]: 100 to 1000 nM.
Next, `Cn1cc(-n2ccc(=O)c(Cc3cccc(-c4nccs4)c3)n2)cn1` [Example 20, 1-(1-methyl-1H-pyrazol-4-yl)-3-[3-(1,3-thiazol-2-yl)benzyl]pyridazin-4(1H)-one]: 100 to 1000 nM; `CC(c1cccc(-c2ncc(C3CC3)cn2)c1)c1nn(-c2cnn(C)c2)ccc1=O` (single isomer, unassigned) [Example 406, 3-{(1R or S)-1-[3-(5-cyclopropyl-pyrimidin-2-yl)phenyl]ethyl}-1-(1-methyl-1H-pyrazol-4-yl)pyridazin-4(1H)-one]: less than 100 nM.
As to `Cn1cc(-n2ccc(=O)c(Cc3cccc(-c4noc(CN5CCOCC5)n4)c3)n2)cn1` [Example 743, 1-(1-methyl-1H-pyrazol-4-yl)-3{3-[5-(morpholin-4-ylmethyl)-1,2,4-oxadiazol-3-yl]benzyl}pyridazin-4(1H)-one], the half-maximal inhibitory concentration (IC50) is 100 to 1000 nM.
As to `Cn1cc(-n2ccc(=O)c(Cc3cccc(-c4ncn(CCC#N)n4)c3)n2)cn1` [Example 709, 3-[3-(3-{[1-(1-methyl-1H-pyrazol-4-yl)-4-oxo-1,4-dihydropyridazin-3-yl]methyl}phenyl)-1H-1,2,4-triazol-1-yl]propanenitrile], the IC50 was 100 to 1000 nM.
Turning to `CN1CCC(COc2cnc(-c3cccc(Cc4nn(-c5cccc(C#N)c5)ccc4=O)c3)nc2)CC1` [Example 171, 3-[3-(3-{5-[(1-methylpiperidin-4-yl)methoxy]pyrimidin-2-yl}benzyl)-4-oxopyridazin-1(4H)-yl]benzonitrile], the IC50 is less than 100 nM.
With `CC(c1cccc(-c2ncc(Br)cn2)c1)c1nn(-c2cnn(C)c2)ccc1=O` (single isomer, unassigned) [Example 241, 3-{(1S or R)-1-[3-(5-bromopyrimidin-2-yl)pheny]ethyl)}-1-(1-methyl-1H-pyrazol-4-yl)pyridazin-4(1H)-one], the IC50 was 100 to 1000 nM.
Next, `Cn1cc(-n2ccc(=O)c(Cc3cccc(NC(=O)OCCCCO)c3)n2)cn1` [Example 572, 4-hydroxybutyl (3-{[1-(1-methyl-1H-pyrazol-4-yl)-4-oxo-1,4-dihydropyridazin-3-yl]methyl}phenyl)carbamate]: less than 100 nM; `CNC(=O)CCCn1cc(-n2ccc(=O)c(Cc3cccc(NC(=O)OCC(C)C)c3)n2)cn1` [Example 697, 2-methylpropyl {3-[(1-{1-[4-(methylamino)-4-oxobutyl]-1H-pyrazol-4-yl}-4-oxo-1,4-dihydropyridazin-3-yl)methyl]phenyl} carbamate]: less than 100 nM; `Cn1cc(-n2ccc(=O)c(Cc3cccc(-c4ncc(CN5CCC(N)CC5)cn4)c3)n2)cn1` [compound 434, 3-(3-{5-[(4-aminopiperidin-1-yl)methyl]pyrimidin-2-yl}benzyl)-1-(1-methyl-1H-pyrazol-4-yl)pyridazin-4(1H)-one]: less than 100 nM.
Next, `COc1cnc(-c2cccc(Cc3nn(-c4cc(F)cc(C#N)c4)ccc3=O)c2)nc1` [Example 128, 3-fluoro-5-{3-[3-(5-methoxypyrimidin-2-yl)benzyl]-4-oxopyridazin-1(4H)-yl}benzonitrile]: less than 100 nM.
For `COCCn1cnc(-c2cccc(Cc3nn(-c4cnn(C)c4)ccc3=O)c2)n1` [Example 66, 3-{3-[1-(2-methoxyethyl)-1H-1,2,4-triazol-3-yl]benzyl}-1-(1-methyl-1H-pyrazol-4-yl)pyridazin-4(1H)-one], the IC50 was less than 100 nM.
For `Cn1cc(-n2ccc(=O)c(Cc3cccc(-c4ncn(CC(F)(F)CN5CCOCC5)n4)c3)n2)cn1` [Example 712, 3-{3-[1-(2,2-difluoro-3-morpholin-4-ylpropyl)-1H-1,2,4-triazol-3-yl]benzyl}-1-(1-methyl-1H-pyrazol-4-yl)pyridazin-4(1H)-one], the IC50 is less than 100 nM.
Then `Cn1cc(-n2ccc(=O)c(Cc3cccc(-c4ncc(-c5cc[nH]n5)cn4)c3)n2)cn1` [Example 420, 1-(1-methyl-1H-pyrazol-4-yl)-3-{3-[5-(1H-pyrazol-3-yl)pyrimidin-2-yl]benzyl}pyridazin-4(1H)-one], with less than 100 nM; and `CCCOC(=O)Nc1cccc(Cc2nn(-c3cc(F)cc(F)c3)ccc2=O)c1` [Example 590, propyl (3-{[1-(3,5-difluorophenyl)-4-oxo-1,4-dihydropyridazin-3-yl]methyl}phenyl)carbamate], with less than 100 nM.
On to `Cn1cc(-n2ccc(=O)c(Cc3cccc(-c4noc(CC5COC5)n4)c3)n2)cn1` [Example 745, 1-(1-methyl-1H-pyrazol-4-yl)-3-{3-[5-(oxetan-3-ylmethyl)-1,2,4-oxadiazol-3-yl]benzyl}pyridazin-4(1H)-one], for which the IC50 lay in the range of 100 to 1000 nM.
As for `Cn1cc(-n2ccc(=O)c(Cc3cccc(-c4ncn(CCN5CCCC5=O)n4)c3)n2)cn1` [Example 718], the IC50 lay within 100 to 1000 nM.
For the molecule `Cn1cc(-n2ccc(=O)c(Cc3cccc(-c4ncc(OCC5(F)COC5)cn4)c3)n2)cn1` [Example 272, 3-(3-{5-[(3-fluorooxetan-3-yl)methoxy]pyrimidin-2-yl}benzyl)-1-(1-methyl-1H-pyrazol-4-yl)pyridazin-4(1H)-one], the IC50 was less than 100 nM.
Regarding `Cn1cc(-n2ccc(=O)c(Cc3cccc(-c4ncc(-c5cncnc5)cn4)c3)n2)cn1` [Example 411, 3-[3-(5,5′-bipyrimidin-2-yl)benzyl]-1-(1-methyl-1H-pyrazol-4-yl)pyridazin-4(1H)-one], the IC50 is less than 100 nM.
On to `CCC(=O)Nc1cccc(Cc2nn(-c3cnn(C)c3)ccc2=O)c1` [Example 635, N-(3-{[1-(1-methyl-1H-pyrazol-4-yl)-4-oxo-1,4-dihydropyridazin-3-yl]methyl}phenyl)propanamide], for which the IC50 lay in the range of 100 to 1000 nM.
Next, `CCn1cc(-n2ccc(=O)c(Cc3cccc(-c4ncc(OCc5cc(C)no5)cn4)c3)n2)cn1` [Example 313, 1-(1-ethyl-1H-pyrazol-4-yl)-3-(3-{5-[(3-methylisoxazol-5-yl)methoxy]primidin-2-yl}benzyl)pyridazin-4(1H)-one]: less than 100 nM; `COCc1cnc(-c2cccc(Cc3nn(-c4cnn(C)c4)ccc3=O)c2)nc1` [Example 161, 3-{3-[5-(methoxymethyl)pyrimidin-2-yl]benzyl}-1-(1-methyl-1H-pyrazol-4-yl)pyridazin-4(1H)-one]: less than 100 nM; `Cn1cc(-n2ccc(=O)c(Cc3cccc(NC(=O)OCCN4CCOCC4)c3)n2)cn1` [Example 531]: less than 100 nM.
For `CN(C)C1CCN(c2cnc(-c3cccc(Cc4nn(-c5cnn(C)c5)ccc4=O)c3)nc2)CC1` [Example 444, 3-(3-{5-[4-(dimethylamino)piperidin-1-yl]pyrimidin-2-yl}benzyl)-1-(1-methyl-1H-pyrazol-4-yl)pyridazin-4(1H)-one], the IC50 is less than 100 nM.
Consider `COCCNc1cnc(-c2cccc(Cc3nn(-c4cnn(C)c4)ccc3=O)c2)nc1` [Example 453, 3-(3-{5-[(2-methoxyethyl)amino]pyrimidin-2-yl}benzyl)-1-(1-methyl-1H-pyrazol-4-yl)pyridazin-4(1H)-one], for which the IC50 is less than 100 nM.
Then `CCCOC(=O)Nc1cccc(Cc2nn(-c3cccc(C#N)c3)ccc2=O)c1` [Example 580, propyl (3-{[1-(3-cyanophenyl)-4-oxo-1,4-dihydropyridazin-3-yl]methyl}phenyl)carbamate], with less than 100 nM; and `Cn1cc(-n2ccc(=O)c(Cc3cccc(-c4ncc(NC(=O)CC5CCCO5)cn4)c3)n2)cn1` (racemic) [Example 464, rac-N-[2-(3-{[1-(1-methyl-1H-pyrazol-4-yl)-4-oxo-1,4-dihydro-pyridazin-3-yl]methyl}phenyl)pyrimidin-5-yl]-2-(tetrahydro-furan-2-yl)acetamide], with 100 to 1000 nM; and `CC(C)Cc1nc(-c2cccc(Cc3nn(-c4cnn(C)c4)ccc3=O)c2)no1` [Example 742, 3-{3-[5-(2-methylpropyl)-1,2,4-oxadiazol-3-yl]benzyl}-1-(1-methyl-1H-pyrazol-4-yl)pyridazin-4(1H)-one], with 100 to 1000 nM.
Regarding `CCNC(=O)Nc1cccc(Cc2nn(-c3ccccc3)ccc2=O)c1` [Example 486, 1-Ethyl-3-{3-[(4-oxo-1-phenyl-1,4-dihydropyridazin-3-yl)methyl]phenyl}urea], the IC50 is 1000 to 3000 nM.
